Legend:
Test in all cases: relative viability (nuclei count vs DMSO), 5 days (fraction); higher = more cells survive
[1] = compound: O=C(c1cc(Cc2n[nH]c(=O)c3ccccc23)ccc1F)N1CCN(C(=O)C2CC2)CC1 [Olaparib] + C[C@]1(O)C[C@@H](c2nc(-c3ccc4ccc(-c5ccccc5)nc4c3)c3c(N)nccn32)C1 [Linsitinib] (partner 1 µM)
In short: (§1)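 After 5 days of treatment, lung cancer cells in 1536-well plates were fixed and stained in a single step (final 0.05% Triton X-100, 1% formaldehyde, 1 ug/ml Hoechst) and their nuclei counted on 4× images. Treatment had been applied by pin tool the day after seeding as one drug alone or as a fixed anchor-drug dose with five library-drug doses (not always all listed) in √10 steps. Relative viability is the nuclei count of treated wells divided by that of vehicle wells, and values are medians of duplicate plates.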

[2] = compound: CC(C)C[C@H](NC(=O)[C@H](CCc1ccccc1)NC(=O)CN1CCOCC1)C(=O)N[C@@H](Cc1ccccc1)C(=O)N[C@@H](CC(C)C)C(=O)[C@@]1(C)CO1 [Carfilzomib] + CC1(C)CCC(c2ccc(Cl)cc2)=C(CN2CCN(c3ccc(C(=O)NS(=O)(=O)c4ccc(N[C@H](CCN5CCOCC5)CSc5ccccc5)c(S(=O)(=O)C(F)(F)F)c4)cc3)CC2)C1 [Navitoclax] (partner 0.5 µM)
In short: as §1

[3] = compound: C[C@@H](Oc1cc(-c2cnn(C3CCNCC3)c2)cnc1N)c1c(Cl)ccc(F)c1Cl [Crizotinib] + COc1cccc2cc(-c3nc([C@H]4CC[C@H](C(=O)O)CC4)n4ncnc(N)c34)[nH]c12 [OSI-027] (partner 0.5 µM)
In short: as §1

[4] = compound: O=C(c1cc(Cc2n[nH]c(=O)c3ccccc23)ccc1F)N1CCN(C(=O)C2CC2)CC1 [Olaparib] + CC(C)C[C@H](NC(=O)[C@H](Cc1ccccc1)NC(=O)c1cnccn1)B(O)O [Bortezomib] (partner 0.002 µM)
In short: as §1

Row | Cell Line | relative viability ([1]; first compound 0.08 µM) | relative viability ([1]; first compound 0.253 µM) | relative viability ([1]; first compound 2.53 µM) | relative viability ([1]; first compound 8 µM) | relative viability ([2]; first compound 0.001 µM) | relative viability ([2]; first compound 0.003162 µM) | relative viability ([2]; first compound 0.01 µM) | relative viability ([2]; first compound 0.03162 µM) | relative viability ([2]; first compound 0.1 µM) | relative viability ([3]; first compound 0.01 µM) | relative viability ([3]; first compound 0.03162 µM) | relative viability ([3]; first compound 0.1 µM) | relative viability ([3]; first compound 1 µM) | relative viability ([4]; first compound 0.08 µM) | relative viability ([4]; first compound 0.253 µM) | relative viability ([4]; first compound 2.53 µM) | relative viability ([4]; first compound 8 µM) | relative viability ([3]; first compound 0.3162 µM)
1 | HCC-366 | 0.67 | 0.479 | 0.447 | 0.303 | 1.02 | 0.98 | 0.956 | 1.03 | 0.0374 | 0.885 | 0.931 | 0.889 | 0.901 | 1.06 | 0.959 | 0.913 | 0.384 | 
2 | HCC-827 | 0.899 | 0.886 | 0.922 | 0.774 | 0.983 | 1.05 | 1.03 | 0.907 | 0.369 | 0.704 | 0.738 | 0.793 | 0.467 | 1.01 | 0.943 | 1.03 | 0.95 | 0.461
3 | HOP-62 | 1.11 | 1.16 | 0.968 | 0.47 | 1.1 | 1.11 | 0.887 | 0.167 | 0.107 | 0.816 | 0.84 | 0.822 |  | 1.21 | 0.55 | 0.556 | 0.211 | 0.765
4 | IA-LM | 0.891 | 0.391 | 0.672 | 0.443 | 0.851 | 0.815 | 0.879 | 0.0554 | 0.01 |  |  |  |  | 0.743 | 0.739 | 0.745 | 0.659 | 
5 | LC-2-ad | 0.81 | 0.754 | 0.787 | 0.633 | 0.568 | 0.452 | 0.407 | 0.227 | 0.135 | 0.761 | 0.974 | 0.96 | 0.705 | 1.15 | 0.922 | 0.908 | 0.556 | 0.612
6 | LCLC-97TM1 | 0.166 | 0.178 | 0.162 | 0.18 | 0.285 | 0.47 | 0.478 | 0.171 | 0.128 | 0.506 | 0.457 | 0.462 | 0.354 | 0.729 | 0.475 | 1.03 | 0.276 | 0.486
7 | LCLC-103H | 1.13 | 1.07 | 1.04 | 0.873 |  |  |  |  |  | 0.483 | 0.485 | 0.361 | 0.428 | 1.04 | 1.07 | 1.05 | 0.948 | 0.495
8 | LK-2 | 0.588 | 0.691 | 0.549 | 0.485 | 0.845 | 0.907 | 0.879 | 0.209 | 0.175 | 0.196 | 0.186 | 0.166 | 0.183 |  |  |  |  | 0.189
9 | LOU-NH91 | 1.19 | 0.94 | 0.973 | 0.885 | 0.703 | 0.832 | 0.42 | 0.19 | 0.204 | 0.713 | 0.724 | 0.798 | 0.706 | 0.502 | 0.462 | 0.512 | 0.394 | 0.712
10 | NCI-H358 | 0.842 | 0.608 | 0.668 | 0.592 |  |  |  |  |  | 0.628 | 0.897 | 0.673 | 0.772 |  |  |  |  | 0.664
11 | NCI-H522 |  |  |  |  |  |  |  |  |  | 0.672 | 0.718 | 0.702 | 0.701 |  |  |  |  | 0.739
12 | NCI-H650 | 0.806 | 0.735 | 0.776 | 0.724 |  |  |  |  |  | 0.587 | 0.508 | 0.544 | 0.59 | 0.978 | 0.672 | 0.561 | 0.516 | 0.423
13 | NCI-H661 | 0.773 | 0.593 | 0.518 | 0.573 |  |  |  |  |  | 0.606 | 0.74 | 0.771 | 0.663 | 1.06 | 0.745 | 0.703 | 0.582 | 0.711
14 | NCI-H1299 | 1 | 0.945 | 0.966 | 0.943 | 1.08 | 1.05 | 1.03 | 0.887 | 0.195 |  |  |  |  | 1.07 | 0.97 | 1.04 | 0.968 | 
15 | NCI-H1395 | 1.14 | 0.896 | 0.67 | 0.734 | 0.964 | 1.24 | 0.995 | 0.481 | 0.347 | 0.601 | 0.631 | 0.623 | 0.563 |  |  |  |  | 0.496
16 | NCI-H1563 | 1.22 | 1.25 | 1.2 | 1.2 |  |  |  |  |  | 0.705 | 0.766 | 0.753 | 0.766 | 0.876 | 0.881 | 0.896 | 0.692 | 0.727
17 | NCI-H1623 |  |  |  |  |  |  |  |  |  | 0.439 | 0.435 | 0.454 | 0.4 |  |  |  |  | 0.378
18 | NCI-H1648 |  |  |  |  |  |  |  |  |  | 0.274 | 0.265 |  | 0.257 |  |  |  |  | 0.224
19 | NCI-H1650 |  |  |  |  |  | 1.09 | 1.24 | 0.1 | 0.119 | 0.554 | 0.624 | 0.585 | 0.569 | 0.265 | 0.196 | 0.232 | 0.197 | 0.54
20 | NCI-H1703 | 0.9 | 0.697 | 0.881 | 0.408 | 1.13 | 1.17 | 0.164 | 0.151 | 0.102 |  |  |  |  | 0.367 | 0.301 | 0.445 | 0.417 | 
21 | NCI-H1944 | 1.22 | 1.05 | 1.12 | 0.876 | 0.998 | 1.16 | 1.01 | 1.05 | 0.546 | 0.396 | 0.421 | 0.402 | 0.397 |  |  |  |  | 0.391
22 | NCI-H2170 |  |  |  |  | 0.698 | 0.688 | 0.617 | 0.409 | 0.197 | 0.775 | 0.839 | 0.741 | 0.691 |  |  |  |  | 0.573
23 | NCI-H2342 |  |  |  |  |  |  |  |  |  | 0.652 | 0.613 | 0.623 | 0.547 |  |  |  |  | 0.509
24 | SK-MES-1 | 1.14 | 0.996 | 1.05 | 0.796 | 1.29 | 1.25 | 1.26 | 0.416 | 0.172 | 0.612 | 0.646 | 0.568 | 0.586 |  |  |  |  | 0.556
25 | SW 900 |  |  |  |  |  |  |  |  |  | 0.499 | 0.507 | 0.581 | 0.568 |  |  |  |  | 0.509
